This is an account of results in BindingDB's records for patent US11839613 (Idorsia Pharmaceuticals, 2023).

For experiment [1], the target named is Prostaglandin E2 receptor EP4 subtype (Homo sapiens, UniProt P35408). Put plainly: hEP4 cAMP Assay.
Description: Cells are counted washed and resuspended in assay buffer (AB; HBSS, 20 mM HEPES, 0.2% BSA; 2 mM IBMX). […] Plate is pre-incubated 45 minutes at RT. Subsequently, 2.5 microliters of PGE2 (final conc. 6 nM) are transferred into the assay plate. Plate is incubated 30 minutes at RT. […] For each compound concentration the percentage of cAMP compared to DMSO control value as average ±STDEV (each concentration is measured in duplicate) is calculated.
In experiment [2] the target is Prostaglandin E2 receptor EP2 subtype (Homo sapiens, UniProt P43116). Put plainly: hEP2 cAMP Assay. On the procedure: Cells are counted washed and resuspended in assay buffer (AB; HBSS, 20 mM HEPES, 0.2% BSA; 2 mM IBMX). […] Plate is pre-incubated 45 minutes at RT. […] Plate is incubated 30 minutes at RT.
Sequence of Prostaglandin E2 receptor EP2 subtype (P43116 whole entry): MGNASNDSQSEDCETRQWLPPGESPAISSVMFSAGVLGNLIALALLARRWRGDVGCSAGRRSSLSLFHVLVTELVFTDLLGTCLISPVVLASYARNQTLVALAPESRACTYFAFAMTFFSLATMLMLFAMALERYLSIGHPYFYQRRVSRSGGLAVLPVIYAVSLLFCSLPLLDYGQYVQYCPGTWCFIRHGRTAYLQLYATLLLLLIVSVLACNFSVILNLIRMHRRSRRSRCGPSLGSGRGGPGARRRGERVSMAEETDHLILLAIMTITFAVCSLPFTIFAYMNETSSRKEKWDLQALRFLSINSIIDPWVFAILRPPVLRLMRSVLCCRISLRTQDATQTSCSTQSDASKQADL

Sequence of Prostaglandin E2 receptor EP4 subtype (P35408 whole entry): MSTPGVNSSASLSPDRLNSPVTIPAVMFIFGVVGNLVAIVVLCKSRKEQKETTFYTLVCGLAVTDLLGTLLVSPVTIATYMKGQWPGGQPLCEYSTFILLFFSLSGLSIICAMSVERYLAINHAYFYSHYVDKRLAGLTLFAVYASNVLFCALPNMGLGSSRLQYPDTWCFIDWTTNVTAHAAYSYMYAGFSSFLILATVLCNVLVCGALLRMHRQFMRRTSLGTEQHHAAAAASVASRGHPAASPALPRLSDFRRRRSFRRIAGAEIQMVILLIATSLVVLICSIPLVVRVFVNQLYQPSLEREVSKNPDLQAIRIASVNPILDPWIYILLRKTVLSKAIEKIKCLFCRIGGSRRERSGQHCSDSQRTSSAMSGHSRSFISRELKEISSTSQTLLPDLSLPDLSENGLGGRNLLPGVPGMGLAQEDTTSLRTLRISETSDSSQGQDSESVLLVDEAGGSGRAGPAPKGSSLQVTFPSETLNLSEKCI

With `CCCc1cc(-c2cc(NCCc3cc4c(cc3OC)OCCO4)ncn2)ccc1C(C)C(=O)O` (racemic) [US11839613, Example 401], the IC50 in experiment [1] stood at 236 nM; in experiment [2], 739 nM.
`CCCc1cc(-c2cc(NCCc3ccc4sccc4c3F)ncn2)ccc1C(C)C(=O)O` (racemic) [US11839613, Example 482] registered an IC50 in experiment [1] of 323 nM.
`CCOc1cc(-c2cc(NCCc3c(OC)cc4ccccc4c3F)ncn2)ccc1C(=O)O` [US11839613, Example 101]: the IC50 stood at 35 nM in experiment [1] and 102 nM in experiment [2].
Take `CCOc1cc(-c2cc(NCCc3cc4ccccc4cc3NC)ncn2)ccc1OCC(=O)O` [US11839613, Example 274]: the IC50 in experiment [1] was found to be 462 nM; in experiment [2], 1180 nM.
On the same counts, the results for `CCOc1cc(-c2cc(NCCc3cc(F)c4sccc4c3)ncn2)ccc1C(=O)O` [US11839613, Example 361] are 68 nM and 270 nM.
For the molecule `CCOc1cc(-c2cc(NCCc3cc(F)c4sccc4c3)ncn2)sc1C(=O)O` [US11839613, Example 362], half-maximal inhibition in experiment [1] (IC50) was put at 1 nM.
Turning to `CCOc1cc(-c2cc(NCCc3cc(F)c4sccc4c3)ncn2)ccc1CC(=O)O` [US11839613, Example 363], the 50% inhibitory concentration (IC50) in experiment [1] was found to be 35 nM; in experiment [2], 534 nM.
On to `CSc1cc(-c2cc(NCCc3cc(F)c4sccc4c3)ncn2)ccc1C(=O)O` [US11839613, Example 364], for which the values for the IC50 in experiment [1] and in experiment [2] were 18 nM and 37 nM, respectively.
With `CCOc1cc(-c2cc(NCCc3ccc4sccc4c3F)ncn2)ccc1C(=O)O` [US11839613, Example 365], the results for the IC50 in experiment [1] and in experiment [2] were 55 nM and 29 nM, respectively.
`O=C(O)c1ccc(-c2cc(NCCc3ccc4sccc4c3F)ncn2)cc1OC1CCC1` [US11839613, Example 366]: the concentration for half-maximal inhibition (IC50) in experiment [1] amounted to 47 nM; in experiment [2] it was 30 nM.
For the molecule `CCOc1cc(-c2cc(NCCc3ccc4sccc4c3F)ncn2)sc1C(=O)O` [US11839613, Example 367], the IC50 in experiment [1] is 1 nM; in experiment [2], 6 nM.
`CCOc1cc(-c2cc(NCCc3ccc4sccc4c3F)ncn2)ccc1CC(=O)O` [US11839613, Example 368]: the IC50 in experiment [1] turned out to be 37 nM; in experiment [2], 119 nM.
For `CCOc1cc(-c2cc(NCCc3ccc4sccc4c3)ncn2)cc(F)c1CC(=O)O` [US11839613, Example 370], the IC50 in experiment [1] was 81 nM; in experiment [2], 312 nM.
As for `CCOc1cc(-c2cc(NCCc3cc4ccsc4cc3OC)ncn2)cc(F)c1CC(=O)O` [US11839613, Example 371], the figures for the IC50 in experiment [1] and in experiment [2] were 68 nM and 48 nM, respectively.
Molecule `CCOc1cc(-c2cc(NCCc3ccc4sccc4c3C)ncn2)cc(F)c1CC(=O)O` [US11839613, Example 372] gave an IC50 in experiment [2] of 111 nM.
On to `CCOc1cc(-c2cc(NCCc3cc4c(cc3OC)OCCO4)ncn2)cc(F)c1CC(=O)O` [US11839613, Example 373], for which the IC50 in experiment [2] amounted to 286 nM.
On to `CCOc1cc(-c2cc(NCCc3c(OC)cc4ccccc4c3C)ncn2)cc(F)c1CC(=O)O` [US11839613, Example 374], for which the IC50 turned out to be 45 nM in experiment [1] and 304 nM in experiment [2].
`CCOc1cc(-c2cc(NCCc3ccc4sccc4c3F)ncn2)cc(F)c1CC(=O)O` [US11839613, Example 375]: the IC50 in experiment [1] turned out to be 66 nM; in experiment [2], 294 nM.
As to `CCOc1cc(-c2cc(NCCc3ccc4ccsc4c3C)ncn2)sc1C(=O)O` [US11839613, Example 376], the IC50 in experiment [1] is 11 nM; in experiment [2], 188 nM.
Regarding `CCCc1cc(-c2cc(NCCc3cc4ccsc4cc3OC)ncn2)ccc1C(=O)O` [US11839613, Example 377], the results for the IC50 in experiment [1] and in experiment [2] were 92 nM and 27 nM, respectively.
On to `CCCc1cc(-c2cc(NCCc3ccc4sccc4c3F)ncn2)ccc1C(=O)O` [US11839613, Example 378], for which the figures for the IC50 in experiment [1] and in experiment [2] were 66 nM and 110 nM, respectively.
Take `CCCc1cc(-c2cc(NCCc3cc4c(cc3OC)OCCO4)ncn2)ccc1C(=O)O` [US11839613, Example 379]: the IC50 was 245 nM in experiment [1] and 87 nM in experiment [2].
Regarding `CCCc1cc(-c2cc(NCCc3c(OC)cc4ccccc4c3C)ncn2)ccc1C(=O)O` [US11839613, Example 380], the IC50 in experiment [1] was 54 nM; in experiment [2] it was 124 nM.
`COc1cc2sccc2cc1CCNc1cc(-c2ccc(CC(=O)O)c(OC)c2)ncn1` [US11839613, Example 381]: the half-maximal inhibitory concentration (IC50) in experiment [1] worked out at 119 nM; in experiment [2] it was 165 nM.
For `COc1cc(-c2cc(NCCc3ccc4sccc4c3F)ncn2)ccc1CC(=O)O` [US11839613, Example 382], the figures for the IC50 in experiment [1] and in experiment [2] were 222 nM and 675 nM, respectively.
In the case of `COc1cc2c(cc1CCNc1cc(-c3ccc(CC(=O)O)c(OC)c3)ncn1)OCCO2` [US11839613, Example 383], the IC50 is 270 nM in experiment [1] and 650 nM in experiment [2].
For `COc1cc(-c2cc(NCCc3c(OC)cc4ccccc4c3C)ncn2)ccc1CC(=O)O` [US11839613, Example 384], the half-inhibitory concentration (IC50) in experiment [1] worked out at 59 nM; in experiment [2] it was 577 nM.
In experiment [2], `CCCc1cc(-c2cc(NCCc3cc4c(cc3OC)OCCO4)ncn2)ccc1CC(=O)O` [US11839613, Example 387] registered a 50% inhibitory concentration (IC50) of 205 nM.
Regarding `CCCc1cc(-c2cc(NCCc3c(OC)cc4ccccc4c3C)ncn2)ccc1CC(=O)O` [US11839613, Example 388], the figures for the IC50 in experiment [1] and in experiment [2] were 51 nM and 626 nM, respectively.
For the molecule `CCCc1cc(-c2cc(NCCc3cc(F)c4sccc4c3)ncn2)ccc1C(=O)O` [US11839613, Example 389], the IC50 amounted to 57 nM in experiment [1] and 231 nM in experiment [2].
Turning to `CCOc1cc(-c2cc(NCCc3cc(C)c4sccc4c3)ncn2)sc1C(=O)O` [US11839613, Example 391], the IC50 stood at 6 nM in experiment [1] and 243 nM in experiment [2].
`CCCOc1cc(-c2cc(NCCc3cc4ccsc4cc3OC)ncn2)ccc1CC(=O)O` [US11839613, Example 392]: the IC50 in experiment [1] came to 111 nM; in experiment [2] it was 156 nM.
As for `CCCOc1cc(-c2cc(NCCc3ccc4sccc4c3F)ncn2)ccc1CC(=O)O` [US11839613, Example 393], the IC50 was 81 nM in experiment [1] and 439 nM in experiment [2].
As for `COc1cc2c(c(C)c1CCNc1cc(-c3ccc(C(=O)O)c(OC4CCC4)c3)ncn1)OCCO2` [US11839613, Example 396], the IC50 turned out to be 20 nM in experiment [1] and 1 nM in experiment [2].
Take `CCCc1cc(-c2cc(NCCc3c(OC)cc4c(c3C)OCCO4)ncn2)ccc1CC(=O)O` [US11839613, Example 397]: the midpoint of inhibition in experiment [2], the IC50, lay at 25 nM.
Consider `CCOc1cc(-c2cc(NCCc3c(OC)cc4c(c3C)OCCO4)ncn2)ccc1CC(=O)O` [US11839613, Example 399], for which the IC50 turned out to be 48 nM in experiment [1] and 40 nM in experiment [2].
Turning to `COc1cc2c(c(C)c1CCNc1cc(-c3ccc(C(=O)O)c(SC)c3)ncn1)OCCO2` [US11839613, Example 400], it took 37 nM to reach half-maximal inhibition in experiment [1] (IC50).
Regarding `CCCc1cc(-c2cc(NCCc3cc4c(cc3OCC)OCCO4)ncn2)ccc1CC(=O)O` [US11839613, Example 402], the IC50 in experiment [1] was 131 nM; in experiment [2] it was 48 nM.
As for `CCOc1cc2c(cc1CCNc1cc(-c3cc(F)c(CC(=O)O)c(OCC)c3)ncn1)OCCO2` [US11839613, Example 403], the IC50 is 112 nM in experiment [1] and 135 nM in experiment [2].
On the same counts, the results for `CCOc1cc(-c2cc(NCCc3cc4ccsc4c(F)c3OC)ncn2)ccc1C(=O)O` [US11839613, Example 404] are 71 nM and 27 nM.
As for `COc1c(CCNc2cc(-c3ccc(C(=O)O)c(SC)c3)ncn2)cc2ccsc2c1F` [US11839613, Example 405], the IC50 came to 18 nM in experiment [1] and 7 nM in experiment [2].
For the molecule `CCOc1cc(-c2cc(NCCc3cc4ccsc4c(F)c3OC)ncn2)ccc1CC(=O)O` [US11839613, Example 406], the values for the IC50 in experiment [1] and in experiment [2] were 101 nM and 220 nM, respectively.
Consider `CCCc1cc(-c2cc(NCCc3c(OC)cc4c(c3F)OCCO4)ncn2)ccc1CC(=O)O` [US11839613, Example 408], for which the concentration for half-maximal inhibition (IC50) was 20 nM in experiment [1] and 126 nM in experiment [2].
On the same counts, the results for `CC(C)Cc1cc(-c2cc(NCCc3ccc4sccc4c3F)ncn2)ccc1CC(=O)O` [US11839613, Example 409] are 87 nM and 486 nM.
Regarding `COc1c(CCNc2cc(-c3ccc(CC(=O)O)c(CC(C)C)c3)ncn2)cc2ccsc2c1F` [US11839613, Example 410], the IC50 was determined as 170 nM in experiment [1] and 665 nM in experiment [2].
As to `COc1cc2c(cc1CCNc1cc(-c3ccc(CC(=O)O)c(CC(C)C)c3)ncn1)OCCO2` [US11839613, Example 411], the IC50 in experiment [2] amounted to 325 nM.
Regarding `CCOc1cc2c(cc1CCNc1cc(-c3ccc(CC(=O)O)c(CC(C)C)c3)ncn1)OCCO2` [US11839613, Example 412], the IC50 in experiment [1] stood at 79 nM; in experiment [2] it was 57 nM.
For `COc1cc2c(c(C)c1CCNc1cc(-c3ccc(CC(=O)O)c(OC(C)C)c3)ncn1)OCCO2` [US11839613, Example 426], in experiment [2], it took 22 nM to reach half-maximal inhibition (IC50).
With `CCOc1cc2c(cc1CCNc1cc(-c3ccc(CC(=O)O)c(OC(F)(F)F)c3)ncn1)OCCO2` [US11839613, Example 427], the IC50 in experiment [1] was 190 nM.
As to `COc1cc2c(c(C)c1CCNc1cc(-c3ccc(CC(=O)O)c(OC(F)(F)F)c3)ncn1)OCCO2` [US11839613, Example 428], the IC50 in experiment [1] worked out at 50 nM.
As for `COc1cc(-c2cc(NCCc3c(OC)cc4c(c3C)OCCO4)ncn2)ccc1CC(=O)O` [US11839613, Example 434], the concentration for half-maximal inhibition (IC50) in experiment [1] is 95 nM.
Turning to `COc1cc2c(c(F)c1CCNc1cc(-c3ccc(CC(=O)O)c(OC(F)F)c3)ncn1)OCCO2` [US11839613, Example 442], the IC50 in experiment [2] was 224 nM.
`CCOc1cc2c(cc1CCNc1cc(-c3ccc(C(=O)O)c(OC4CC4)c3)ncn1)OCCO2` [US11839613, Example 447] displayed an IC50 in experiment [2] of 16 nM.
Regarding `COc1cc(-c2cc(NCCc3cc(F)c4sccc4c3)ncn2)ccc1CC(=O)O` [US11839613, Example 475], inhibition in experiment [1] was half-maximal at 114 nM (IC50).
